molecular target: T1, Ephrin type-A receptor 4 (Homo sapiens, UniProt P54764); test: Inhibition of his-tagged EPHA4-mediated poly(Glu,Tyr) phosphorylation at 500 uM after 75 mins using E4:Y1 as substrate by fluorescence assay
T1 sequence (P54764 whole entry): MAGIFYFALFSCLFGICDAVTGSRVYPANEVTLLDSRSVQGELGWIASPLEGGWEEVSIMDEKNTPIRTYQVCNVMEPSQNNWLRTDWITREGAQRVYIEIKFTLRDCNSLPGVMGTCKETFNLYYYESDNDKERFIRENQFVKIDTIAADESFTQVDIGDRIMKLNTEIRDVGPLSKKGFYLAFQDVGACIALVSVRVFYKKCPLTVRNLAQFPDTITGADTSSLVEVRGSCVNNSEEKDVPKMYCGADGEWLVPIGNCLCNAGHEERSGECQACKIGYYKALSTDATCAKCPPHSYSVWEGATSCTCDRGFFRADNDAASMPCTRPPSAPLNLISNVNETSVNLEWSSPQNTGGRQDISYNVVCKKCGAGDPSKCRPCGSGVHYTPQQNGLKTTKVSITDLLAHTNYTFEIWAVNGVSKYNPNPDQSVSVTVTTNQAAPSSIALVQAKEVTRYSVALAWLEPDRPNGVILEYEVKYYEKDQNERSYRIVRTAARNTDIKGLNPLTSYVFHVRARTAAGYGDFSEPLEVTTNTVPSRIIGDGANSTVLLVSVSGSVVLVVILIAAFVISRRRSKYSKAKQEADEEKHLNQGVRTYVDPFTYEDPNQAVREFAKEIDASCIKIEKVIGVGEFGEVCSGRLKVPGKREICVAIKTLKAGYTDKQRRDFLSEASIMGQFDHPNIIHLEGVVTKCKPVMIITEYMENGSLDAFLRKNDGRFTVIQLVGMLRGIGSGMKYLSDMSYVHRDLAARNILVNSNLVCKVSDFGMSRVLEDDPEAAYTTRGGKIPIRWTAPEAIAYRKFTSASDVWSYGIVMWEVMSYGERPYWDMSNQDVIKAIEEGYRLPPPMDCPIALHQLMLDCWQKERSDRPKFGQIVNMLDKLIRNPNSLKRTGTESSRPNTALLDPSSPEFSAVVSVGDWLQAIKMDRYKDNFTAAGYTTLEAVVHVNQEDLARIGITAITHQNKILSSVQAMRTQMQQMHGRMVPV

Row | SMILES | inhibition
1 | Nc1n[nH]c2ncc3c(c12)CCCC3 | 80%

molecular target: T1, Ephrin type-A receptor 4; test: Inhibition of his-tagged EPHA4-mediated poly(Glu,Tyr) phosphorylation after 75 mins using E4:Y1 as substrate by fluorescence assay

Row | SMILES | IC50
2 | Cc1ccccc1-c1nc2[nH]nc(N)c2c2c1CCCC2 | 2 µM
3 | Nc1n[nH]c2nc(-c3ccccc3Cl)c3c(c12)CCCC3 | 8.1 µM

molecular target: T1, Ephrin type-A receptor 4; test: Inhibition of his-tagged EPHA4-mediated poly(Glu,Tyr) phosphorylation at 200 uM after 75 mins using E4:Y1 as substrate by fluorescence assay

Row | SMILES | inhibition
4 | CN1CCc2c(c(NCc3ccccc3)nc3[nH]nc(N)c23)C1 | 33%
5 | CC1(C)Cc2c(c(-c3ccccc3)nc3[nH]nc(N)c23)CS1 | 87%
6 | Nc1n[nH]c2ncc3c(c12)CCCCCC3 | 80%
7 | CC1(C)Cc2c(c(-c3ccccc3)nc3[nH]nc(N)c23)CO1 | 90%
8 | CN1CCc2c(c(N3CCOCC3)nc3[nH]nc(N)c23)C1 | 0%
9 | Cc1nc2[nH]nc(N)c2c2c1CSC(C)(C)C2 | 70%
10 | CC1(C)Cc2c(c(-c3ccco3)[nH]c3nnc(N)c2-3)CO1 | 75%
11 | Cc1cc(C)c2c(NC(=O)c3ccccc3)n[nH]c2n1 | 10%
12 | CC(C)c1nc2[nH]nc(N)c2c2c1COC(C)(C)C2 | 82%
13 | CN1CCc2c(c(NCCO)nc3[nH]nc(N)c23)C1 | 0%
14 | CCN(CC)c1nc2[nH]nc(N)c2c2c1CN(C)CC2 | 5%
15 | CCCc1nc2[nH]nc(N)c2c2c1COC(C)(C)C2 | 77%

From ChEMBL document CHEMBL1926576, “Fragment based lead discovery of small molecule inhibitors for the EPHA4 receptor tyrosine kinase” (Eur J Med Chem, 2012)
